Molecules are shown by their SMILES.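 Grown in 96-well plates, cells were treated for 48 hours with each compound at five concentrations. Insufficient inhibition: endpoint recorded as highest concentration tested. At the GI50, growth is halved. The concentration for full growth arrest is given as TGI.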

Holding throughout (experiment): inhibition of tumour cell growth, NCI panel, 48 h
Test [1] relates to UACC-257 melanoma.
For test [2], the system named is M14 melanoma.
The test system of test [3] is CCRF-CEM leukemia.
In test [4] the test system is SK-MEL-28 melanoma.
Test [5] has as its system DU-145 prostate.
Test [6] relates to SF-295 CNS.
The subject of test [7] is SK-MEL-2 melanoma.
The subject of test [8] is 786-0 renal.
Test [9] relates to HCT-15 colon.
For test [10], the system named is NCI-H226 lung.

Consider `CCN(CC)CCCC(C)Nc1c2ccc(C)cc2nc2ccc(OC)cc12` (centres undefined), for which the GI50 in [1] is 1.62 µM; in test [2], 1.58 µM; in [3] it was 1.82 µM; in [4], 1.87 µM; in test [5] it was 1.65 µM; in test [6] it was 1.47 µM. Also, the GI50 is 1.89 µM in test [7], 2.05 µM in [8] and 2.32 µM in [9]. For the same molecule, the TGI in [1] was 3.05 µM; in [2] it was 3.18 µM; in [3] it was 9.9 µM; in test [4], 3.35 µM; in test [5] it was 8.83 µM; in test [6] it was 4.89 µM. Also, the TGI in test [7] was 8.75 µM; in [8] it was 8.58 µM; in test [9], 13.1 µM.
As for `CCCCCCN(CCCCCC)CC(O)c1ccc2c3c(cccc13)CC2` (centres undefined), the GI50 in test [10] is 8.06 µM; in [1], 6.97 µM; in test [2], 3.95 µM; in [4] it was 11.2 µM; in test [5] it was 11.6 µM; in test [6], 1.17 µM. The GI50 is 11 µM in [7], 6.15 µM in test [8] and 6.63 µM in test [9]. Further, the TGI in test [10] turned out to be 22.9 µM; in test [1] it was 22.6 µM; in test [2] it was 17 µM; in test [4], 24.9 µM; in test [5] it was 24.7 µM; in test [6], 12 µM. The TGI in [7] was 24.7 µM; in test [8], 20.2 µM; in test [9], 25.1 µM.
For `COc1ccc(CN2c3ccccc3CCc3ccccc32)cc1F`, the GI50 in test [10] was 2.43 µM; in test [1], over 100 µM; in [2], 0.354 µM; in test [3], 0.515 µM; in [4] it was 0.82 µM; in test [5], 0.481 µM. For the same molecule, the results for the GI50 in test [6], in test [8] and in test [9] were 0.333 µM, 0.572 µM and 0.428 µM, respectively. The TGI in test [10], in [1], in test [2], in [3], in test [4] and in test [5] was over 100 µM in each case. In addition, the TGI in test [6], in test [8] and in test [9] was over 100 µM in each case.
In the case of `CCC(c1cccc(O)c1)C(CC)c1cccc(O)c1` (centres undefined), the GI50 in test [10] is 12.1 µM; in test [1], 11.5 µM; in [2], 2.93 µM; in [4], 4.9 µM; in test [5], 11 µM; in test [6], 3.99 µM. The results for the GI50 in test [7], in [8] and in [9] were 3.96 µM, 5.68 µM and 3.52 µM, respectively. Moreover, the TGI was determined as 26.3 µM in test [10]; 26.4 µM in [1]; 13.2 µM in test [2]; 18.2 µM in test [4]; 29.9 µM in [5]; 19.7 µM in test [6]. Besides, the results for the TGI in [7], in test [8] and in test [9] were 17.2 µM, 18.3 µM and 14.8 µM, respectively.
Regarding `O=[N+]([O-])c1ccc2c(c1)[O][Sn]([I])([I])[O]2`, the GI50 was over 100 µM in [10]; over 100 µM in [1]; over 100 µM in test [2]; 42.3 µM in [3]; 69.6 µM in [4]; over 100 µM in test [6]. Besides, the GI50 in test [7] is over 100 µM; in test [8] it was over 100 µM; in [9], 54.4 µM. In addition, the TGI in test [10], in [1], in test [2], in test [3], in test [4] and in test [6] was over 100 µM each time. Moreover, the TGI in test [7], in [8] and in test [9] was over 100 µM each time.
Turning to `Cc1c(Cl)cccc1NC(=O)CC1C(=O)Nc2ccccc2S1(=O)=O` (centres undefined), the TGI in test [10] came out at 35.1 µM; in [1], 77.8 µM; in test [2], 29.3 µM; in test [3] it was 47.8 µM; in [4] it was 38.6 µM; in test [6] it was 36.5 µM. Also, the results for the TGI in [7], in test [8] and in test [9] were 45.9 µM, 32.4 µM and 25.7 µM, respectively.
Consider `Nc1nc(CCC(=O)Nc2cccc(C(F)(F)F)c2)cc(-c2ccc3ccccc3c2)n1`, for which the TGI in test [10], in test [1], in test [2], in test [3], in test [4] and in [6] was over 100 µM each time. Also, the TGI in [7], in test [8] and in test [9] was over 100 µM in each case.
In the case of `Cc1cc(=O)oc2cc(O)c(CN(C)CC(=O)O)cc12`, the TGI in test [10], in test [1], in test [2], in test [4], in test [5] and in test [7] was over 100 µM in each case. In addition, the TGI in test [8] and in test [9] was over 100 µM in each case.
Regarding `C[C-](O)O.O/C(=C\[C-](O)c1ccccc1)c1ccccc1.O/C(=C\[C-](O)c1ccccc1)c1ccccc1.[Nd+3]` (centres undefined), the GI50 in test [10] is 1.24 µM; in test [1] it was 15.5 µM; in test [2], 14.6 µM; in test [3], 2.21 µM; in test [4], 12.7 µM; in test [6] it was 0.372 µM. For the same molecule, the values for the GI50 in [7], in [8] and in [9] were 13.1 µM, 9.65 µM and 4.96 µM, respectively. Besides, the TGI is 7.93 µM in test [10]; 42.3 µM in [1]; 33.8 µM in test [2]; 15.3 µM in test [3]; 44.5 µM in test [4]; 19.4 µM in test [6]. Further, the TGI was determined as 34.4 µM in [7], 32.7 µM in test [8] and 20.1 µM in [9].

For the origin of these results see PubChem BioAssay (NCI).
